Results on one molecule are retold here after patent publication EP2135864A1, “5-(4-methanesulfonyl-phenyl)-thiazole derivatives for the treatment of acute and chronic inflammatory diseases” (FAES FARMA, S.A., priority 2008, dated 2009).

The assay relates to IFN-gamma. As to the kind of experiment: IFN-gamma production by PBMC from patients with rheumatoid arthritis, CBA. Format: cell-based, human. To be noted: 24 hours, mean ± standard error, n=8. The method, then: CBA protocol was followed according to the manufacturer's instructions. The election of microparticles was performed following the summary of Figure 1.
The acquisition on samples was performed with the BD FACS Array Bioanalyser System (FACSArray, Becton Dickinson, San José, CA, USA) and the analysis of the results was completed with the software FCAP Array (Becton Dickinson) in a PC computer.
Briefly, the experimental protocol consisted of a plate pre-washing out with Wash Buffer. After decantation, the mixture of capture microparticles was re-suspended in the vortex. Standards and samples were added in the adequate dilution. After permanent stirring incubation during 1 h, the PE detection reagent was added and incubated again during 2h at room temperature. After a washing-out, the acquisition was performed in the flow cytometer. Table 3. -Kit CBA Human Soluble Protein Multiplex Flex Set System.
PBMC (5 x 10^4 cells/well) from 8 patients with rheumatoid arthritis were cultured in duplicate 200 µl of complete medium supplement with the highest solvent concentration (10^-6 M), and 10^-6 M, 10^-7 M and 10^-8 M of compound 12, in the presence and absence either of LPS (10 µg/ml), or anti-CD3 (12.5 ng/ml) + anti-CD28 (1/3x10^5), during 24 hours. Culture supernatants were frozen at -20°C and IFN-gamma concentration was assessed by BD FACS Array Bioanalyser by using CBA Flex Set, specific to determine IFN-gamma concentration, following the manufacturer instructions.

Turning to `Cc1nc(OC2CCCC2)c(-c2ccc(S(C)(=O)=O)cc2)s1` [compound 12, 4-cyclopentyloxy-5-(4-methylsulfonyl-phenyl)-2-methylthiazole], the “IFN-gamma production in PMBC from patients with rheumatoid arthritis” value is 205.26±46.00 (0.484) pg/mL (LPS (10µg/ml), 10^-6 M, vehicle 461.14±85.00, p 0.484); 146.50±33.00 (0.208) pg/mL (LPS (10µg/ml), 10^-7 M, vehicle 461.14±85.00, p 0.208); 248.73±35.00 (0.889) pg/mL (LPS (10µg/ml), 10^-8 M, vehicle 461.14±85.00, p 0.889); 5115.27±600.00 (0.05) pg/mL (anti-CD3 (12.5 ng/ml) + anti-CD28 (1/3x10^5), 10^-6 M, vehicle 8406.18±1000.00, p 0.05); 6411.71±700.00 (0.05) pg/mL (anti-CD3 (12.5 ng/ml) + anti-CD28 (1/3x10^5), 10^-7 M, vehicle 8406.18±1000.00, p 0.05); 7122.07±950 (0.017) pg/mL (anti-CD3 (12.5 ng/ml) + anti-CD28 (1/3x10^5), 10^-8 M, vehicle 8406.18±1000.00, p 0.017). For the same molecule, the “IFN-gamma production in PMBC from patients with rheumatoid arthritis” value runs as follows: (medium, 10^-6 M, vehicle 145.49±28.00, p 0.779) 193.68±45.00 (0.779) pg/mL; (medium, 10^-7 M, vehicle 145.49±28.00, p 0.208) 203.72±50.00 (0.208) pg/mL; (medium, 10^-8 M, vehicle 145.49±28.00, p 0.674) 235.10±60.00 (0.674) pg/mL.
